Results published in PubChem BioAssay (NCI).
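Tested at 5 concentrations; 48 h exposure; 96-well plates; endpoints linearly interpolated, else capped at highest concentration. TGI is the concentration that stops growth completely.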 Active and inactive are the calls of the source. Cut-off read from the data, not from the text of the source: active = GI50 below about 0.43 µM; inactive = the rest.

Tests used:
Experiment in all cases: NCI tumour cell line growth inhibition, 48 h
NCI-H522 lung = tested on: NCI-H522 lung
HOP-92 NSCLC = tested on: HOP-92 NSCLC
KM12 colon = tested on: KM12 colon
HS 578T breast = tested on: HS 578T breast
HCT-15 colon = tested on: HCT-15 colon
UACC-62 melanoma = tested on: UACC-62 melanoma
SK-MEL-28 melanoma = tested on: SK-MEL-28 melanoma
LOX IMVI melanoma = tested on: LOX IMVI melanoma
COLO 205 colon = tested on: COLO 205 colon
MDA-N = tested on: MDA-N
MDA-MB-435 = tested on: MDA-MB-435
MALME-3M melanoma = tested on: MALME-3M melanoma
OVCAR-8 ovarian = tested on: OVCAR-8 ovarian
HCT-116 colon = tested on: HCT-116 colon
CAKI-1 renal = tested on: CAKI-1 renal
A549 NSCLC = tested on: A549 NSCLC
TK-10 renal = tested on: TK-10 renal
UO-31 renal = tested on: UO-31 renal
BT-549 breast = tested on: BT-549 breast
U251 CNS = tested on: U251 CNS
NCI-H226 lung = tested on: NCI-H226 lung
HCC-2998 colon = tested on: HCC-2998 colon
SF-268 CNS = tested on: SF-268 CNS
IGROV1 ovarian = tested on: IGROV1 ovarian
DU-145 prostate = tested on: DU-145 prostate
SK-OV-3 ovarian = tested on: SK-OV-3 ovarian
UACC-257 melanoma = tested on: UACC-257 melanoma
PC-3 prostate = tested on: PC-3 prostate
SK-MEL-2 melanoma = tested on: SK-MEL-2 melanoma
SNB-19 CNS = tested on: SNB-19 CNS
OVCAR-4 ovarian = tested on: OVCAR-4 ovarian
ACHN renal = tested on: ACHN renal
MCF7 breast = tested on: MCF7 breast
SW-620 colon = tested on: SW-620 colon
OVCAR-5 ovarian = tested on: OVCAR-5 ovarian
HOP-62 NSCLC = tested on: HOP-62 NSCLC
OVCAR-3 ovarian = tested on: OVCAR-3 ovarian
SF-295 CNS = tested on: SF-295 CNS
786-0 renal = tested on: 786-0 renal
MDA-MB-231 breast = tested on: MDA-MB-231 breast
NCI-H23 lung = tested on: NCI-H23 lung
CCRF-CEM leukemia = tested on: CCRF-CEM leukemia
SK-MEL-5 melanoma = tested on: SK-MEL-5 melanoma
SR leukemia = tested on: SR leukemia
RXF 393 renal = tested on: RXF 393 renal
SNB-75 CNS = tested on: SNB-75 CNS
HL-60(TB) leukemia = tested on: HL-60(TB) leukemia
SN12C renal = tested on: SN12C renal
EKVX NSCLC = tested on: EKVX NSCLC
M14 melanoma = tested on: M14 melanoma
RPMI-8226 leukemia = tested on: RPMI-8226 leukemia
T-47D breast = tested on: T-47D breast
K-562 leukemia = tested on: K-562 leukemia
MOLT-4 leukemia = tested on: MOLT-4 leukemia
SF-539 CNS = tested on: SF-539 CNS
NCI/ADR-RES ovarian = tested on: NCI/ADR-RES ovarian
HT29 colon = tested on: HT29 colon
A498 renal = tested on: A498 renal
NCI-H460 lung = tested on: NCI-H460 lung

`COC(=O)c1ccc2cc(O)c(O)cc2c1` was tested, and the TGI (NCI-H522 lung) was > 64.7 µM, the TGI (HOP-92 NSCLC) was > 100 µM and the TGI (KM12 colon) was > 100 µM. The TGI (HS 578T breast) was > 100 µM, the TGI (HCT-15 colon) was > 100 µM and the TGI (UACC-62 melanoma) was > 79.3 µM. For the same compound, the TGI (SK-MEL-28 melanoma) was > 100 µM, the TGI (LOX IMVI melanoma) was > 100 µM and the TGI (COLO 205 colon) was > 100 µM. For the same compound, the TGI (MDA-N) was > 100 µM, the TGI (MDA-MB-435) was > 100 µM and the TGI (MALME-3M melanoma) was > 79 µM. For the same compound, the TGI (OVCAR-8 ovarian) was > 91.3 µM, the TGI (HCT-116 colon) was > 100 µM and the TGI (CAKI-1 renal) was > 100 µM. The TGI (A549 NSCLC) was > 100 µM, the TGI (TK-10 renal) was > 100 µM and the TGI (UO-31 renal) was 55.3 µM. The TGI (BT-549 breast) was > 90.6 µM, the TGI (U251 CNS) was > 100 µM and the TGI (NCI-H226 lung) was > 100 µM. For the same compound, the TGI (HCC-2998 colon) was > 100 µM, the TGI (SF-268 CNS) was > 81.1 µM and the TGI (IGROV1 ovarian) was > 100 µM. The TGI (DU-145 prostate) was > 100 µM, the TGI (SK-OV-3 ovarian) was > 100 µM and the TGI (UACC-257 melanoma) was > 96.7 µM. The TGI (PC-3 prostate) was > 100 µM, the TGI (SK-MEL-2 melanoma) was > 100 µM and the TGI (SNB-19 CNS) was > 100 µM. The TGI (OVCAR-4 ovarian) was > 100 µM, the TGI (ACHN renal) was > 100 µM and the TGI (MCF7 breast) was > 100 µM. For the same compound, the TGI (SW-620 colon) was > 100 µM, the TGI (OVCAR-5 ovarian) was > 100 µM and the TGI (HOP-62 NSCLC) was > 100 µM. For the same compound, the TGI (OVCAR-3 ovarian) was > 100 µM, the TGI (SF-295 CNS) was > 100 µM and the TGI (786-0 renal) was > 100 µM. The TGI (MDA-MB-231 breast) was > 100 µM, the TGI (NCI-H23 lung) was > 82 µM and the TGI (CCRF-CEM leukemia) was > 60.4 µM. For the same compound, the TGI (SK-MEL-5 melanoma) was > 70.2 µM, the TGI (SR leukemia) was > 60 µM and the TGI (RXF 393 renal) was > 100 µM. The TGI (SNB-75 CNS) was > 100 µM, the TGI (HL-60(TB) leukemia) was > 100 µM and the TGI (SN12C renal) was > 100 µM. For the same compound, the TGI (EKVX NSCLC) was > 100 µM, the TGI (M14 melanoma) was > 100 µM and the TGI (RPMI-8226 leukemia) was > 100 µM. The TGI (T-47D breast) was > 100 µM, the TGI (K-562 leukemia) was > 100 µM and the TGI (MOLT-4 leukemia) was > 68.8 µM. For the same compound, the TGI (SF-539 CNS) was > 100 µM, the TGI (NCI/ADR-RES ovarian) was > 78.2 µM and the TGI (HT29 colon) was > 100 µM. For the same compound, the TGI (A498 renal) was > 100 µM.

In the case of `CCCC(=O)OCC(COC(=O)CCC)OC(=O)CCC`, the TGI (NCI-H522 lung) is reported as > 100 µM, the TGI (HOP-92 NSCLC) is reported as > 100 µM and the TGI (KM12 colon) is reported as > 100 µM. For the same compound, the outcome (KM12 colon) was “inactive”, the TGI (HS 578T breast) was > 100 µM and the outcome (HS 578T breast) was “inactive”. For the same compound, the TGI (HCT-15 colon) was > 100 µM, the outcome (HCT-15 colon) was “inactive” and the TGI (UACC-62 melanoma) was > 100 µM. The TGI (SK-MEL-28 melanoma) was > 100 µM, the outcome (SK-MEL-28 melanoma) was “inactive” and the TGI (LOX IMVI melanoma) was > 100 µM. For the same compound, the outcome (LOX IMVI melanoma) was “inactive”, the TGI (NCI-H460 lung) was > 100 µM and the outcome (NCI-H460 lung) was “inactive”. For the same compound, the TGI (COLO 205 colon) was > 100 µM, the outcome (COLO 205 colon) was “inactive” and the TGI (MDA-N) was > 100 µM. For the same compound, the outcome (MDA-N) was “inactive”, the TGI (MDA-MB-435) was > 100 µM and the outcome (MDA-MB-435) was “inactive”. For the same compound, the TGI (MALME-3M melanoma) was > 100 µM, the outcome (MALME-3M melanoma) was “inactive” and the TGI (OVCAR-8 ovarian) was > 100 µM. The outcome (OVCAR-8 ovarian) was “inactive”, the TGI (HCT-116 colon) was > 100 µM and the outcome (HCT-116 colon) was “inactive”. The TGI (CAKI-1 renal) was > 100 µM, the outcome (CAKI-1 renal) was “inactive” and the TGI (A549 NSCLC) was > 100 µM. For the same compound, the outcome (A549 NSCLC) was “inactive”, the TGI (TK-10 renal) was > 100 µM and the outcome (TK-10 renal) was “inactive”. The TGI (UO-31 renal) was > 100 µM, the outcome (UO-31 renal) was “inactive” and the TGI (BT-549 breast) was > 100 µM. The TGI (U251 CNS) was > 100 µM, the outcome (U251 CNS) was “inactive” and the TGI (NCI-H226 lung) was > 100 µM. The outcome (NCI-H226 lung) was “inactive”, the TGI (HCC-2998 colon) was > 100 µM and the outcome (HCC-2998 colon) was “inactive”. The TGI (SF-268 CNS) was > 100 µM, the outcome (SF-268 CNS) was “inactive” and the TGI (IGROV1 ovarian) was > 100 µM. The TGI (DU-145 prostate) was > 100 µM, the outcome (DU-145 prostate) was “inactive” and the TGI (SK-OV-3 ovarian) was > 100 µM. For the same compound, the outcome (SK-OV-3 ovarian) was “inactive”, the TGI (UACC-257 melanoma) was > 100 µM and the outcome (UACC-257 melanoma) was “inactive”. For the same compound, the TGI (PC-3 prostate) was > 100 µM, the outcome (PC-3 prostate) was “inactive” and the TGI (SK-MEL-2 melanoma) was > 100 µM. For the same compound, the outcome (SK-MEL-2 melanoma) was “inactive”, the TGI (SNB-19 CNS) was > 100 µM and the outcome (SNB-19 CNS) was “inactive”. For the same compound, the TGI (OVCAR-4 ovarian) was > 100 µM, the outcome (OVCAR-4 ovarian) was “inactive” and the TGI (ACHN renal) was > 100 µM. The outcome (ACHN renal) was “inactive”, the TGI (MCF7 breast) was > 100 µM and the outcome (MCF7 breast) was “inactive”. The TGI (SW-620 colon) was > 100 µM, the outcome (SW-620 colon) was “inactive” and the TGI (OVCAR-5 ovarian) was > 100 µM. The TGI (HOP-62 NSCLC) was > 100 µM, the outcome (HOP-62 NSCLC) was “inactive” and the TGI (OVCAR-3 ovarian) was > 100 µM. For the same compound, the TGI (SF-295 CNS) was > 100 µM, the outcome (SF-295 CNS) was “inactive” and the TGI (786-0 renal) was > 100 µM. For the same compound, the outcome (786-0 renal) was “inactive”, the TGI (MDA-MB-231 breast) was > 100 µM and the outcome (MDA-MB-231 breast) was “inactive”. The TGI (NCI-H23 lung) was > 100 µM, the outcome (NCI-H23 lung) was “inactive” and the TGI (CCRF-CEM leukemia) was > 100 µM. For the same compound, the outcome (CCRF-CEM leukemia) was “inactive”, the TGI (SK-MEL-5 melanoma) was > 100 µM and the outcome (SK-MEL-5 melanoma) was “inactive”. The outcome (SR leukemia) was “inactive”, the TGI (RXF 393 renal) was > 100 µM and the TGI (SNB-75 CNS) was > 100 µM. The outcome (SNB-75 CNS) was “inactive”, the TGI (HL-60(TB) leukemia) was 90.7 µM and the outcome (HL-60(TB) leukemia) was “inactive”. For the same compound, the TGI (SN12C renal) was > 100 µM, the outcome (SN12C renal) was “inactive” and the TGI (EKVX NSCLC) was > 100 µM. For the same compound, the outcome (EKVX NSCLC) was “inactive”, the TGI (M14 melanoma) was > 100 µM and the outcome (M14 melanoma) was “inactive”. For the same compound, the TGI (RPMI-8226 leukemia) was > 100 µM, the outcome (RPMI-8226 leukemia) was “inactive” and the TGI (T-47D breast) was > 100 µM. For the same compound, the TGI (K-562 leukemia) was > 100 µM, the outcome (K-562 leukemia) was “inactive” and the TGI (MOLT-4 leukemia) was > 100 µM. The outcome (MOLT-4 leukemia) was “inactive”, the TGI (SF-539 CNS) was > 100 µM and the outcome (SF-539 CNS) was “inactive”. For the same compound, the TGI (NCI/ADR-RES ovarian) was 88.6 µM, the outcome (NCI/ADR-RES ovarian) was “inactive” and the TGI (HT29 colon) was > 100 µM. The outcome (HT29 colon) was “inactive”, the TGI (A498 renal) was > 100 µM and the outcome (A498 renal) was “inactive”.
